Experimental data published in patent US20090082326A1, “SOLUBLE DOSAGE FORMS CONTAINING CEPHEM DERIVATIVES SUITABLE FOR PARENTERAL ADMINISTRATION” (Forest Laboratories Holdings Limited, priority 2007, published 2009).

Tests used:
Type in all cases: physicochemical
[1] = One hour kinetic solubility in citric acid/sodium citrate ion mixtures; details: 25 °C, aqueous buffer, thermodynamic from solid
[2] = Aqueous solubility (stated in the description); details: water
[3] = One hour kinetic solubility in histidine mixtures; details: USP buffer with histidine, 25 °C, aqueous buffer, thermodynamic from solid
[4] = One hour kinetic solubility in DL arginine mixtures; details: 25 °C, aqueous buffer, thermodynamic from solid
[5] = One hour kinetic solubility in acetic acid/sodium acetate ion mixtures; details: 25 °C, thermodynamic from solid
[6] = pH solubility profile: one hour and three hour kinetic solubility in USP buffers at 0.05 M; details: aqueous buffer, thermodynamic from solid; for solubility at 1 h / solubility at 3 h: USP buffer 0.05 M, 25° C.
[7] = One hour kinetic solubility in L-arginine mixtures; details: 25 °C, aqueous buffer, thermodynamic from solid

`CC(=O)[O-].CCO/N=C(\C(=O)N[C@@H]1C(=O)N2C(C(=O)O)=C(Sc3nc(-c4cc[n+](C)cc4)cs3)CS[C@H]12)c1nsc(NP(=O)(O)O)n1.O` [ceftaroline fosamil, (6R,7R)-7-[[2(Z)-ethoxyimino-[5-(phosphonoamino)-1,2,4-thiadiazol-3-yl]acetyl]amino]-3-[[4-(1-methyl-pyridinium-4-yl)thiazol-2-yl]sulfanyl]-8-oxo-5-thia-1-azabicyclo[4.2.0]oct-2-en-2-carboxylate monoacetate monohydrate] showed a solubility at 1 h ([1]; USP buffer with citric acid/sodium citrate, citric acid/sodium citrate 0.05 M, 25° C., read-out: Solubility at 1 hr) of 121 mg/mL, a solubility at 1 h ([1]; USP buffer with citric acid/sodium citrate, citric acid/sodium citrate 0.1 M, 25° C., read-out: Solubility at 1 hr) of 159 mg/mL and a solubility at 1 h ([1]; USP buffer with citric acid/sodium citrate, citric acid/sodium citrate 0.5 M, 25° C., read-out: Solubility at 1 hr) of 240 mg/mL. For the same molecule, the solubility at 1 h ([1]; USP buffer with citric acid/sodium citrate, citric acid/sodium citrate 1.0 M, 25° C., read-out: Solubility at 1 hr) was 245 mg/mL, the solubility at 1 h ([1]; citric acid/sodium citrate ion mixtures, at citrate concentrations of 0.5 M and higher, read-out: solubility) was > 200 mg/mL and the solubility [2] was ~36 mg/mL. For the same molecule, the solubility at 1 h ([3]; histidine 0.05 M) was 43 mg/mL, the solubility at 1 h ([3]; histidine 0.1 M) was 75 mg/mL and the solubility at 1 h ([4]; DL arginine mixtures, at DL arginine concentrations of 1.0 M and higher, read-out: solubility) was > 200 mg/mL. For the same molecule, the solubility at 1 h ([4]; USP buffer with DL arginine, DL arginine 0.05 M, 25° C., read-out: Solubility at 1 hr) was 13 mg/mL, the solubility at 1 h ([4]; USP buffer with DL arginine, DL arginine 0.1 M, 25° C., read-out: Solubility at 1 hr) was 19 mg/mL and the solubility at 1 h ([4]; USP buffer with DL arginine, DL arginine 0.5 M, 25° C., read-out: Solubility at 1 hr) was 142 mg/mL. The solubility at 1 h ([4]; USP buffer with DL arginine, DL arginine 1.0 M, 25° C., read-out: Solubility at 1 hr) was 233 mg/mL, the solubility at 1 h ([4]; USP buffer with DL arginine, DL arginine 2.0 M, 25° C., read-out: Solubility at 1 hr) was 226 mg/mL and the solubility at 1 h ([5]; USP buffer with acetic acid/sodium acetate, pH 2.9, aqueous buffer, pH 2.9, acetic acid/sodium acetate 1.0 M, 25° C., read-out: Solubility at 1 hr) was 213 mg/mL. It also gave a solubility at 1 h ([5]; USP buffer with acetic acid/sodium acetate, pH 3.1, aqueous buffer, pH 3.1, acetic acid/sodium acetate 0.5 M, 25° C., read-out: Solubility at 1 hr) of 126 mg/mL, a solubility at 1 h ([5]; USP buffer with acetic acid/sodium acetate, pH 3.2, aqueous buffer, pH 3.2, acetic acid/sodium acetate 2.0 M, 25° C., read-out: Solubility at 1 hr) of 152 mg/mL and a solubility at 1 h ([5]; USP buffer with acetic acid/sodium acetate, pH 3.9, aqueous buffer, pH 3.9, acetic acid/sodium acetate 1.0 M, 25° C., read-out: Solubility at 1 hr) of 237 mg/mL. It also gave a solubility at 1 h ([5]; USP buffer with acetic acid/sodium acetate, pH 3.9, aqueous buffer, pH 3.9, acetic acid/sodium acetate 2.0 M, 25° C., read-out: Solubility at 1 hr) of 273 mg/mL, a solubility at 1 h ([5]; USP buffer with acetic acid/sodium acetate, pH 4.2, aqueous buffer, pH 4.2, acetic acid/sodium acetate 0.5 M, 25° C., read-out: Solubility at 1 hr) of 158 mg/mL and a solubility at 1 h ([5]; USP buffer with acetic acid/sodium acetate, pH 4.7, aqueous buffer, pH 4.7, acetic acid/sodium acetate 2.0 M, 25° C., read-out: Solubility at 1 hr) of 271 mg/mL. It also gave a solubility at 1 h ([5]; USP buffer with acetic acid/sodium acetate, pH 4.8, aqueous buffer, pH 4.8, acetic acid/sodium acetate 1.0 M, 25° C., read-out: Solubility at 1 hr) of 235 mg/mL, a solubility at 1 h ([5]; USP buffer with acetic acid/sodium acetate, pH 5.7, aqueous buffer, pH 5.7, acetic acid/sodium acetate 1.0 M, 25° C., read-out: Solubility at 1 hr) of 212 mg/mL and a solubility at 1 h ([5]; USP buffer with acetic acid/sodium acetate, pH 5.9, aqueous buffer, pH 5.9, acetic acid/sodium acetate 2.0 M, 25° C., read-out: Solubility at 1 hr) of 244 mg/mL. The solubility at 1 h ([5]; USP buffer with acetic acid/sodium acetate, pH 6.9, aqueous buffer, pH 6.9, acetic acid/sodium acetate 1.0 M, 25° C., read-out: Solubility at 1 hr) was 207 mg/mL, the solubility at 1 h ([5]; USP buffer with acetic acid/sodium acetate, pH 6.9, aqueous buffer, pH 6.9, acetic acid/sodium acetate 2.0 M, 25° C., read-out: Solubility at 1 hr) was 225 mg/mL and the solubility at 1 h ([5]; USP buffer with acetic acid/sodium acetate, pH 7.7, aqueous buffer, pH 7.7, acetic acid/sodium acetate 1.0 M, 25° C., read-out: Solubility at 1 hr) was 205 mg/mL. For the same molecule, the solubility at 1 h ([5]; USP buffer with acetic acid/sodium acetate, pH 7.8, aqueous buffer, pH 7.8, acetic acid/sodium acetate 2.0 M, 25° C., read-out: Solubility at 1 hr) was 212 mg/mL, the solubility at 1 h ([5]; USP buffer with acetic acid/sodium acetate, pH 8.2, aqueous buffer, pH 8.2, acetic acid/sodium acetate 0.5 M, 25° C., read-out: Solubility at 1 hr) was 125 mg/mL and the solubility at 1 h ([5]; USP buffer with acetic acid/sodium acetate, pH 8.9, aqueous buffer, pH 8.9, acetic acid/sodium acetate 0.5 M, 25° C., read-out: Solubility at 1 hr) was 50 mg/mL. For the same molecule, the solubility at 1 h ([5]; USP buffer with acetic acid/sodium acetate, pH 8.9, aqueous buffer, pH 8.9, acetic acid/sodium acetate 1.0 M, 25° C., read-out: Solubility at 1 hr) was 102 mg/mL, the solubility at 1 h ([5]; USP buffer with acetic acid/sodium acetate, pH 9, aqueous buffer, pH 9.0, acetic acid/sodium acetate 2.0 M, 25° C., read-out: Solubility at 1 hr) was 159 mg/mL and the solubility at 1 h ([5]; acetic acid/sodium acetate buffer, pH 3, aqueous buffer, pH 3.0, acetic acid/sodium acetate 0.1 M, 25° C., read-out: Solubility at 1 hr) was 20 mg/mL. For the same molecule, the solubility at 1 h ([5]; acetic acid/sodium acetate buffer, pH 3.8, aqueous buffer, pH 3.8, acetic acid/sodium acetate 0.1 M, 25° C., read-out: Solubility at 1 hr) was 35 mg/mL, the solubility at 1 h ([5]; acetic acid/sodium acetate buffer, pH 4.6, aqueous buffer, pH 4.6, acetic acid/sodium acetate 0.1 M, 25° C., read-out: Solubility at 1 hr) was 36 mg/mL and the solubility at 1 h ([5]; acetic acid/sodium acetate buffer, pH 4.7, aqueous buffer, pH 4.7, acetic acid/sodium acetate 0.5 M, 25° C., read-out: Solubility at 1 hr) was 156 mg/mL. The solubility at 1 h ([5]; acetic acid/sodium acetate buffer, pH 5.6, aqueous buffer, pH 5.6, acetic acid/sodium acetate 0.5 M, 25° C., read-out: Solubility at 1 hr) was 123 mg/mL, the solubility at 1 h ([5]; acetic acid/sodium acetate buffer, pH 6, aqueous buffer, pH 6.0, acetic acid/sodium acetate 0.1 M, 25° C., read-out: Solubility at 1 hr) was 36 mg/mL and the solubility at 1 h ([5]; acetic acid/sodium acetate buffer, pH 6.7, aqueous buffer, pH 6.7, acetic acid/sodium acetate 0.1 M, 25° C., read-out: Solubility at 1 hr) was 31 mg/mL. The solubility at 1 h ([5]; acetic acid/sodium acetate buffer, pH 6.8, aqueous buffer, pH 6.8, acetic acid/sodium acetate 0.5 M, 25° C., read-out: Solubility at 1 hr) was 133 mg/mL, the solubility at 1 h ([5]; acetic acid/sodium acetate buffer, pH 8.2, aqueous buffer, pH 8.2, acetic acid/sodium acetate 0.1 M, 25° C., read-out: Solubility at 1 hr) was 31 mg/mL and the solubility at 1 h ([5]; acetic acid/sodium acetate buffer, pH 9.4, aqueous buffer, pH 9.4, acetic acid/sodium acetate 0.1 M, 25° C., read-out: Solubility at 1 hr) was 34 mg/mL. The solubility at 1 h ([5]; acetic acid/sodium acetate ion mixtures, aqueous buffer, at acetate concentrations of 1.0 M and higher, read-out: solubility) was > 200 mg/mL, the solubility ([6]; USP buffers, 25 °C, over pH about 3 to about 8, 0.05 M) was 25 to 36 mg/mL and the solubility at 1 h ([6]; pH 1.2) was 6 mg/mL. For the same molecule, the solubility at 3 h ([6]; pH 1.2) was 6 mg/mL, the solubility at 1 h ([6]; pH 1.9) was 9 mg/mL and the solubility at 3 h ([6]; pH 1.9) was 9 mg/mL. For the same molecule, the solubility at 1 h ([6]; pH 2.9) was 27 mg/mL, the solubility at 3 h ([6]; pH 2.9) was 27 mg/mL and the solubility at 1 h ([6]; pH 3.7) was 36 mg/mL. For the same molecule, the solubility at 3 h ([6]; pH 3.7) was 29 mg/mL, the solubility at 1 h ([6]; pH 5.3) was 26 mg/mL and the solubility at 3 h ([6]; pH 5.3) was 26 mg/mL. It also gave a solubility at 1 h ([6]; pH 5.9) of 34 mg/mL, a solubility at 3 h ([6]; pH 5.9) of 29 mg/mL and a solubility at 1 h ([6]; pH 7.3) of 25 mg/mL. The solubility at 3 h ([6]; pH 7.3) was 24 mg/mL, the solubility at 1 h ([6]; pH 8.0) was 29 mg/mL and the solubility at 3 h ([6]; pH 8.0) was 24 mg/mL. For the same molecule, the solubility at 1 h ([6]; pH 9.0) was 16 mg/mL, the solubility at 3 h ([6]; pH 9.0) was 12 mg/mL and the solubility at 1 h ([7]; L-arginine mixtures, at L-arginine concentrations of 0.5 M and higher, read-out: solubility) was > 200 mg/mL. The solubility at 1 h ([7]; USP buffer with L-arginine, L-arginine 0.05 M, 25° C., read-out: Solubility at 1 hr) was 39 mg/mL, the solubility at 1 h ([7]; USP buffer with L-arginine, L-arginine 0.1 M, 25° C., read-out: Solubility at 1 hr) was 82 mg/mL and the solubility at 1 h ([7]; USP buffer with L-arginine, L-arginine 0.5 M, 25° C., read-out: Solubility at 1 hr) was 226 mg/mL.
